System: 129S6/SvEv mice
Assay: Contextual fear conditioning (CFC), 3-shock; freezing
Type: in vivo
Settings: for p, Fisher's PLSD Saline vs. drug, CFC Re-exposure Freezing Min 1 (%) / p, Fisher's PLSD Saline vs. drug, CFC Re-exposure Freezing Min 2 (%) / p, Fisher's PLSD Saline vs. drug, CFC Re-exposure Freezing Min 3 (%) / p, Fisher's PLSD Saline vs. drug, CFC Re-exposure Freezing Min 4 (%) / p, Fisher's PLSD Saline vs. drug, CFC Re-exposure Freezing Min 5 (%) / p, Fisher's PLSD Saline vs. drug, CFC Re-exposure Freezing (%): drug 5 minutes after stress, FIG. 2C; for p, Fisher's LSD Saline vs. drug, CFC Re-exposure Freezing Min 1 (%) / p, Fisher's LSD Saline vs. drug, CFC Re-exposure Freezing Min 2 (%) / p, Fisher's LSD Saline vs. drug, CFC Re-exposure Freezing Min 3 (%) / p, Fisher's LSD Saline vs. drug, CFC Re-exposure Freezing Min 4 (%) / p, Fisher's LSD Saline vs. drug, CFC Re-exposure Freezing Min 5 (%) / p, Fisher's LSD Saline vs. drug, CFC Re-exposure Freezing (%): drug 1 week before stress; for CFC Training, Average Freezing, p (Fisher's LSD): FIG. 8C; for p, Freezing (%), CFC Re-exposure 2, (R,S)-ketamine vs. FENM / p, Freezing (%), CFC Re-exposure 2, Saline vs. drug: drug 5 min after re-exposure 1; for p, Freezing (%), CFC Re-exposure 2, (R,S)-ketamine vs. FENM: (R,S)-ketamine 30 mg/kg vs. FENM 20 mg/kg
Method: A 3-shock CFC paradigm was administered as previously described (45, 46). CFC was conducted in chambers obtained from Med Associates (St. Albans, Vt.), with internal dimensions of approximately 20 cm wide×16 cm deep×20.5 cm high. The chambers had metal walls on each side, clear plastic front and back walls and ceilings, and stainless-steel bars on the floor. A house light (CM1820 bulb, 28v, 100 mA) mounted directly above the chamber provided illumination. Each chamber was located inside a larger, insulated, plastic cabinet that provided protection from outside light and noise. Each cabinet contained a ventilation fan that was operated during the sessions. A paper towel dabbed with lemon solution was placed underneath the chamber floor. Mice were held outside the experimental room in their home cages prior to testing and transported to the conditioning apparatus individually in standard mouse cages Chambers were cleaned with 70% EtOH between each set of mice. Mice were placed into the conditioning chamber and received shocks at 180 s, 240 s, and 300 s (2 s duration, 0.75 mA). Fifteen seconds after the last shock, mice were removed from the chamber. Overall, the training session lasted 317 s. […] All sessions were scored for freezing using FreezeFrame4.

[1] = 5 min prior to CFC, (R,S)-ketamine 30 mg/kg, FENM 20 mg/kg, vs saline
[2] = (R,S)-ketamine (30 mg/kg) vs. FENM (20 mg/kg), FIG. 8D
[3] = (R,S)-ketamine (30 mg/kg) vs. FENM (20 mg/kg), FIG. 8F
[4] = Saline vs. FENM (20 mg/kg), FIG. 8D
[5] = Saline vs. FENM (20 mg/kg), FIG. 8F

Structure (SMILES): NC12CC3CC(C1)CC(CCF)(C3)C2 [FENM, 1-amino-3-fluoroethyl-adamantane]
- p, Fisher's PLSD Saline vs. drug, CFC Re-exposure Freezing Min 1 (%) (10 mg/kg): 0.1019
- p, Fisher's PLSD Saline vs. drug, CFC Re-exposure Freezing Min 2 (%) (10 mg/kg): 0.0359
- p, Fisher's PLSD Saline vs. drug, CFC Re-exposure Freezing Min 3 (%) (10 mg/kg): 0.0300
- p, Fisher's PLSD Saline vs. drug, CFC Re-exposure Freezing Min 4 (%) (10 mg/kg): 0.1916
- p, Fisher's PLSD Saline vs. drug, CFC Re-exposure Freezing Min 5 (%) (10 mg/kg): 0.6909
- p, Fisher's PLSD Saline vs. drug, CFC Re-exposure Freezing (%) (10 mg/kg, after RMANOVA): 0.0570
- p, Fisher's LSD Saline vs. drug, CFC Re-exposure Freezing Min 1 (%) (20 mg/kg, FIG. 1C): 0.2929
- p, Fisher's LSD Saline vs. drug, CFC Re-exposure Freezing Min 2 (%) (20 mg/kg, FIG. 1C): 0.0225
- p, Fisher's LSD Saline vs. drug, CFC Re-exposure Freezing Min 3 (%) (20 mg/kg, FIG. 1C): 0.0834
- p, Fisher's LSD Saline vs. drug, CFC Re-exposure Freezing Min 4 (%) (20 mg/kg, FIG. 1C): 0.0743
- p, Fisher's LSD Saline vs. drug, CFC Re-exposure Freezing Min 5 (%) (20 mg/kg, FIG. 1C): 0.0027
- p, Fisher's LSD Saline vs. drug, CFC Re-exposure Freezing (%) (20 mg/kg, after ANOVA, FIG. 1D): 0.015
- p, Fisher's LSD Saline vs. drug, CFC Re-exposure Freezing (%) (20 mg/kg, after RMANOVA, FIG. 1C): 0.0150
- p, Fisher's LSD Saline vs. drug, CFC Re-exposure Freezing Min 1 (%) (30 mg/kg, FIG. 1C): 0.0328
- p, Fisher's LSD Saline vs. drug, CFC Re-exposure Freezing Min 2 (%) (30 mg/kg, FIG. 1C): 0.0080
- p, Fisher's LSD Saline vs. drug, CFC Re-exposure Freezing Min 3 (%) (30 mg/kg, FIG. 1C): 0.0038
- p, Fisher's LSD Saline vs. drug, CFC Re-exposure Freezing Min 4 (%) (30 mg/kg, FIG. 1C): 0.0005
- p, Fisher's LSD Saline vs. drug, CFC Re-exposure Freezing Min 5 (%) (30 mg/kg, FIG. 1C): 0.0807
- p, Fisher's LSD Saline vs. drug, CFC Re-exposure Freezing (%) (30 mg/kg, after ANOVA, FIG. 1D): 0.0018
- p, Fisher's LSD Saline vs. drug, CFC Re-exposure Freezing (%) (30 mg/kg, after RMANOVA, FIG. 1C): 0.0018
- p, Fisher's PLSD Saline vs. drug, CFC Re-exposure Freezing Min 1 (%) (30 mg/kg): 0.8647
- p, Fisher's PLSD Saline vs. drug, CFC Re-exposure Freezing Min 2 (%) (30 mg/kg): 0.4119
- p, Fisher's PLSD Saline vs. drug, CFC Re-exposure Freezing Min 3 (%) (30 mg/kg): 0.3540
- p, Fisher's PLSD Saline vs. drug, CFC Re-exposure Freezing Min 4 (%) (30 mg/kg): 0.0503
- p, Fisher's PLSD Saline vs. drug, CFC Re-exposure Freezing Min 5 (%) (30 mg/kg): 0.3078
- p, Fisher's PLSD Saline vs. drug, CFC Re-exposure Freezing (%) (30 mg/kg, after RMANOVA): 0.2420
- fear expression during CFC re-exposure (1 week prior to CFC, (R,S)-ketamine 30 mg/kg, FENM 20 and 30 mg/kg, vs saline): decreased fear expression
- fear expression during re-exposure 2 (5 min after context re-exposure 1 (24 h before re-exposure 2), (R,S)-ketamine 30 mg/kg, FENM 20 mg/kg, vs saline): significantly decreased fear expression
- fear expression during CFC re-exposure 1 [1]: but not FENM significantly decreased
- fear expression during CFC re-exposure 2 [1]: significantly increased fear expression
- freezing during CFC training [1]: but not FENM, increased freezing
- CFC Training, Average Freezing, p (Fisher's LSD) ((R,S)-ketamine (30 mg/kg) vs. FENM (20 mg/kg)): 0.0029
- CFC Re-exposure 1, Freezing Min 1 (%), p (Fisher's LSD) [2]: <0.0001
- CFC Re-exposure 1, Freezing Min 2 (%), p (Fisher's LSD) [2]: <0.0001
- CFC Re-exposure 1, Freezing Min 3 (%), p (Fisher's LSD) [2]: <0.0001
- CFC Re-exposure 1, Freezing Min 4 (%), p (Fisher's LSD) [2]: <0.0001
- CFC Re-exposure 1, Freezing Min 5 (%), p (Fisher's LSD) [2]: <0.0001
- CFC Re-exposure 2, Freezing Min 1 (%), p (Fisher's LSD) [3]: 0.1684
- CFC Re-exposure 2, Freezing Min 2 (%), p (Fisher's LSD) [3]: <0.0001
- CFC Re-exposure 2, Freezing Min 3 (%), p (Fisher's LSD) [3]: <0.0001
- CFC Re-exposure 2, Freezing Min 4 (%), p (Fisher's LSD) [3]: <0.0001
- CFC Re-exposure 2, Freezing Min 5 (%), p (Fisher's LSD) [3]: <0.0001
- CFC Re-exposure 1, Freezing (%), p (Fisher's LSD) ((R,S)-ketamine (30 mg/kg) vs. FENM (20 mg/kg), after ANOVA, FIG. 8E): <0.0001
- CFC Re-exposure 2, Freezing (%), p (Fisher's LSD) ((R,S)-ketamine (30 mg/kg) vs. FENM (20 mg/kg), after ANOVA, FIG. 8G): <0.0001
- CFC Re-exposure 1, Freezing (%), p (Fisher's LSD) ((R,S)-ketamine (30 mg/kg) vs. FENM (20 mg/kg), after RMANOVA, FIG. 8D): <0.0001
- CFC Re-exposure 2, Freezing (%), p (Fisher's LSD) ((R,S)-ketamine (30 mg/kg) vs. FENM (20 mg/kg), after RMANOVA, FIG. 8F): <0.0001
- CFC Training, Freezing, p (Fisher's LSD) ((R,S)-ketamine (30 mg/kg) vs. FENM (20 mg/kg), after RMANOVA, FIG. 8 cohort): 0.0029
- Behavior: Fear (Extinction (5 min after re-exposure 1), dose 20 mg/kg): ↓
- p, Freezing (%), CFC Re-exposure 2, (R,S)-ketamine vs. FENM (Fisher's LSD after ANOVA, FIG. 4G): 0.0248
- p, Freezing (%), CFC Re-exposure 2, Saline vs. drug (Fisher's LSD after ANOVA, FENM 20 mg/kg, (R,S)-ketamine 30 mg/kg, FIG. 4G): 0.0281
- p, Freezing (%), CFC Re-exposure 2, (R,S)-ketamine vs. FENM (Fisher's LSD after RMANOVA, FIG. 4F): 0.0248
- p, Freezing (%), CFC Re-exposure 2, Saline vs. drug (Fisher's LSD after RMANOVA, FENM 20 mg/kg, ketamine 30 mg/kg, FIG. 4F): 0.0281
- p, Freezing (%), CFC Training, Saline vs. drug (Fisher's LSD after RMANOVA, drug 5 min before CFC, (R,S)-ketamine 30 mg/kg, FENM dose lies beyond the rows shown, FIG. 8B): 0.9251
- Behavior: Fear (Prophylactic (5 min before stress), dose 20 mg/kg): ↑
- Behavior: Fear (Prophylactic (7 days before stress), dose 20 mg/kg): ↓
- Behavior: Fear (Prophylactic (7 days before stress), dose 30 mg/kg): ↓
- CFC Training, Average Freezing, p (Fisher's LSD) (Saline vs. FENM (20 mg/kg)): 0.9251
- CFC Re-exposure 1, Freezing Min 1 (%), p (Fisher's LSD) [4]: 0.0008
- CFC Re-exposure 1, Freezing Min 2 (%), p (Fisher's LSD) [4]: 0.0075
- CFC Re-exposure 1, Freezing Min 3 (%), p (Fisher's LSD) [4]: 0.1384
- CFC Re-exposure 1, Freezing Min 4 (%), p (Fisher's LSD) [4]: 0.7601
- CFC Re-exposure 1, Freezing Min 5 (%), p (Fisher's LSD) [4]: 0.4751
- CFC Re-exposure 2, Freezing Min 1 (%), p (Fisher's LSD) [5]: 0.5432
- CFC Re-exposure 2, Freezing Min 2 (%), p (Fisher's LSD) [5]: 0.0173
- CFC Re-exposure 2, Freezing Min 3 (%), p (Fisher's LSD) [5]: 0.0053
- CFC Re-exposure 2, Freezing Min 4 (%), p (Fisher's LSD) [5]: 0.3068
- CFC Re-exposure 2, Freezing Min 5 (%), p (Fisher's LSD) [5]: 0.3729
- CFC Re-exposure 1, Freezing (%), p (Fisher's LSD) (Saline vs. FENM (20 mg/kg), after ANOVA, FIG. 8E): 0.0665
- CFC Re-exposure 2, Freezing (%), p (Fisher's LSD) (Saline vs. FENM (20 mg/kg), after ANOVA, FIG. 8G): 0.0173
- CFC Re-exposure 1, Freezing (%), p (Fisher's LSD) (Saline vs. FENM (20 mg/kg), after RMANOVA, FIG. 8D): 0.0665
- CFC Re-exposure 2, Freezing (%), p (Fisher's LSD) (Saline vs. FENM (20 mg/kg), after RMANOVA, FIG. 8F): 0.0173
- p, Fisher's PLSD Saline vs. drug, CFC Re-exposure Freezing Min 1 (%) (dose (20)): 0.1072
- p, Fisher's PLSD Saline vs. drug, CFC Re-exposure Freezing Min 2 (%) (dose (20)): 0.0080
- p, Fisher's PLSD Saline vs. drug, CFC Re-exposure Freezing Min 3 (%) (dose (20)): 0.1619
- p, Fisher's PLSD Saline vs. drug, CFC Re-exposure Freezing Min 4 (%) (dose (20)): 0.5390
- p, Fisher's PLSD Saline vs. drug, CFC Re-exposure Freezing Min 5 (%) (dose (20)): 0.8801
- p, Fisher's PLSD Saline vs. drug, CFC Re-exposure Freezing (%) (dose (20), after RMANOVA): 0.1188
- behavior during CFC training (one week prior to 3-shock CFC (c-fos / Western blot cohort), (R,S)-ketamine 30 mg/kg, FENM 20 mg/kg, vs saline): did not alter behavior
- freezing upon re-exposure (one week prior to 3-shock CFC, re-exposed five days later, (R,S)-ketamine 30 mg/kg, FENM 20 mg/kg, vs saline): significantly reduced freezing

— US20220071932A1, “Compositions and Methods Against Stress-Induced Affective Disorders and Their Associated Symptoms” (The Trustees of Columbia University in the City of New York, priority 2019, published 2022)
